Laboratory results from US20030144249A1, “Use of organophosphorous compounds for producing a medicament for treating infections” (priority 2000, published 2003).

Experiments:
[1] = tested on: Plasmodium falciparum; assay: Antimalarial activity, in vitro culture, [3H]-hypoxanthine incorporation; assay type: cell-based; conditions: 72 h, asynchronous culture, 48 h + 24 h with [3H]-hypoxanthine, read-out: IC50 (nM) of malaria culture (Plasmodium falciparum)
Protocol: The antimalarial activity of substances 1 to 8 (see page 5) was determined using in vitro cultures of the causative organism of malaria, Plasmodium falciparum. 200 μl of an asynchronous Plasmodium falciparum culture with a 0.4% blood parasite content and a heamatocrit of 2% were loaded into each of the wells of a 96 well microtitre plate. A serial dilution series of the compounds was then prepared in steps of three between concentrations of 100 and 0.14 μmol l^−1. The plates were incubated at 37° C., 3% CO2 and 5% O2 over a period of 48 hours. 30 μl of medium supplemented with 27 μCi ml^−1 of [^3H]-hypoxanthine were then added to each well. After 24 hours' incubation, the parasites were harvested by filtration through glass fibre filters and the incorporated radioactivity was measured. Inhibition of parasite growth was measured as the percentage inhibition of tritium incorporation. Inhibition of parasite growth was expressed as the percentage inhibition of tritium incorporation relative to a comparison without the substance. The median inhibitory concentration (IC50) of the substance was determined by extrapolating the values.

[2] = tested on: Abutilon theophrasti; assay: Herbicidal activity, soil, pre-emergence; assay type: in vivo; conditions: Soil, pre-emergence, 500 gram/hectare
Protocol: (§1) Herbicidal activity is determined using standard methods.
(§2) Substances 1 to 8 listed on page 5 are again investigated.

[3] = tested on: Setaria viridis; assay: Herbicidal activity, soil, pre-emergence; assay type: in vivo; conditions: Soil, pre-emergence, 500 gram/hectare
Protocol: as §1, §2

[4] = tested on: Alopecurus myosuroides; assay: Herbicidal activity, soil, pre-emergence; assay type: in vivo; conditions: Soil, pre-emergence, 500 gram/hectare
Protocol: as §1, §2

[5] = tested on: Galium aperine; assay: Herbicidal activity, soil, pre-emergence; assay type: in vivo; conditions: Soil, pre-emergence, 500 gram/hectare
Protocol: as §1, §2

[6] = tested on: Beta vulgaris; assay: Herbicidal activity, soil, pre-emergence; assay type: in vivo; conditions: Soil, pre-emergence, 500 gram/hectare
Protocol: as §1, §2

[7] = tested on: Amaranthus retroflexus; assay: Herbicidal activity, soil, pre-emergence; assay type: in vivo; conditions: Soil, pre-emergence, 500 gram/hectare
Protocol: as §1, §2

[8] = tested on: Zea mays; assay: Herbicidal activity, soil, pre-emergence; assay type: in vivo; conditions: Soil, pre-emergence, 500 gram/hectare
Protocol: as §1, §2

[9] = tested on: Cyperus esculentus; assay: Herbicidal activity, soil, pre-emergence; assay type: in vivo; conditions: Soil, pre-emergence, 500 gram/hectare
Protocol: as §1, §2

[10] = tested on: Xanthium strumarium; assay: Herbicidal activity, soil, pre-emergence; assay type: in vivo; conditions: Soil, pre-emergence, 500 gram/hectare
Protocol: as §1, §2

[11] = tested on: Avena fatua; assay: Herbicidal activity, soil, pre-emergence; assay type: in vivo; conditions: Soil, pre-emergence, 500 gram/hectare
Protocol: as §1, §2

[12] = tested on: Sinapis arvensis; assay: Herbicidal activity, soil, pre-emergence; assay type: in vivo; conditions: Mutarda arvensis; Soil, pre-emergence; 500 gram/hectare
Protocol: as §1, §2

[13] = tested on: Abutilon theophrasti; assay: Herbicidal activity, soil, post-emergence; assay type: in vivo; conditions: Soil, post-emergence, 500 gram/hectare
Protocol: as §1, §2

[14] = tested on: Setaria viridis; assay: Herbicidal activity, soil, post-emergence; assay type: in vivo; conditions: Soil, post-emergence, 500 gram/hectare
Protocol: as §1, §2

[15] = tested on: Alopecurus myosuroides; assay: Herbicidal activity, soil, post-emergence; assay type: in vivo; conditions: Soil, post-emergence, 500 gram/hectare
Protocol: as §1, §2

[16] = tested on: Galium aperine; assay: Herbicidal activity, soil, post-emergence; assay type: in vivo; conditions: Soil, post-emergence, 500 gram/hectare
Protocol: as §1, §2

[17] = tested on: Beta vulgaris; assay: Herbicidal activity, soil, post-emergence; assay type: in vivo; conditions: Soil, post-emergence, 500 gram/hectare
Protocol: as §1, §2

[18] = tested on: Amaranthus retroflexus; assay: Herbicidal activity, soil, post-emergence; assay type: in vivo; conditions: Soil, post-emergence, 500 gram/hectare
Protocol: as §1, §2

[19] = tested on: Zea mays; assay: Herbicidal activity, soil, post-emergence; assay type: in vivo; conditions: Soil, post-emergence, 500 gram/hectare
Protocol: as §1, §2

[20] = tested on: Cyperus esculentus; assay: Herbicidal activity, soil, post-emergence; assay type: in vivo; conditions: Soil, post-emergence, 500 gram/hectare
Protocol: as §1, §2

[21] = tested on: Xanthium strumarium; assay: Herbicidal activity, soil, post-emergence; assay type: in vivo; conditions: Soil, post-emergence, 500 gram/hectare
Protocol: as §1, §2

[22] = tested on: Avena fatua; assay: Herbicidal activity, soil, post-emergence; assay type: in vivo; conditions: Soil, post-emergence, 500 gram/hectare
Protocol: as §1, §2

[23] = tested on: Sinapis arvensis; assay: Herbicidal activity, soil, post-emergence; assay type: in vivo; conditions: Mutarda arvensis; Soil, post-emergence; 500 gram/hectare
Protocol: as §1, §2

[24] = molecular target: T1, DOXP reductoisomerase from Helicobacter pylori (Helicobacter pylori, UniProt P56139); assay: DOXP reductoisomerase inhibition (NADPH oxidation at 365 nm); assay type: biochemical; conditions: recombinant enzyme; 0.3 mM NADPH, 1 mM DOXP, pH 7.5; read-out: IC50 (nM) of DOXP reductoisomerase from Helicobacter pylori
T1 construct: made in house; host or cells: Helicobacter pylori (so in the source)
T1 sequence (P56139 1-368): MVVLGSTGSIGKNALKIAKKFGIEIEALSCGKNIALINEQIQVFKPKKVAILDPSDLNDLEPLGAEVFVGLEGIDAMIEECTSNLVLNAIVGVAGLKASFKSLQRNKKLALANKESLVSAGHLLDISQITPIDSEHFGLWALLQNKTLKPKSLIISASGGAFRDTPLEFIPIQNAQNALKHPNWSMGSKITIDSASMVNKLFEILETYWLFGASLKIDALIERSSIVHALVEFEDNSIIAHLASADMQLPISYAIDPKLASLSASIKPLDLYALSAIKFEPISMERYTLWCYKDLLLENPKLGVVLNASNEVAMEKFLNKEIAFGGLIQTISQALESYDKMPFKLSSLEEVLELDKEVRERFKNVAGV
Protocol: The DOXP reductoisomerase of Helicobacter pylori was expressed as a recombinant protein in Helicobacter pylori. The activity of DOXP reductoisomerase was determined in a batch containing 100 mM tris-HCl (pH=7.5), 1 mM MnCl2, 0.3 mM NADPH and 1 mM DOXP.
The oxidation of NADPH was here measured at 365 nm in a spectrophotometer. The inhibition studies were performed by measuring the activity of DOXP reductoisomerase in the presence of compounds 1 to 8 (see page 5) at various concentrations between 0. 1 and 100 μmol l^−1.

[25] = tested on: Lepidium; assay: Herbicidal activity, water, pre-emergence; assay type: in vivo; conditions: Water, 1000 gram/hectare
Protocol: as §1, §2

[26] = tested on: Rice; assay: Herbicidal activity, water, pre-emergence; assay type: in vivo; conditions: Oryza sativa, Water, 1000 gram/hectare
Protocol: as §1, §2

[27] = tested on: Solanum; assay: Herbicidal activity, water, pre-emergence; assay type: in vivo; conditions: Water, 1000 gram/hectare
Protocol: as §1, §2

[28] = tested on: Echinochloa; assay: Herbicidal activity, water, pre-emergence; assay type: in vivo; conditions: Water, 1000 gram/hectare
Protocol: as §1, §2

IC50 [1] [nM]	Compound	pest or weed control at 500 g/ha [2] [%]	pest or weed control at 500 g/ha [3] [%]	pest or weed control at 500 g/ha [4] [%]	pest or weed control at 500 g/ha [5] [%]	plant injury at 500 g/ha [6] [%]	pest or weed control at 500 g/ha [7] [%]	plant injury at 500 g/ha [8] [%]	pest or weed control at 500 g/ha [9] [%]	pest or weed control at 500 g/ha [10] [%]	pest or weed control at 500 g/ha [11] [%]	pest or weed control at 500 g/ha [12] [%]	pest or weed control at 500 g/ha [13] [%]	pest or weed control at 500 g/ha [14] [%]	pest or weed control at 500 g/ha [15] [%]	pest or weed control at 500 g/ha [16] [%]	plant injury at 500 g/ha [17] [%]	pest or weed control at 500 g/ha [18] [%]	plant injury at 500 g/ha [19] [%]	pest or weed control at 500 g/ha [20] [%]	further results
580	CCCC(=O)N(O)C(C)N(C)CC(O)P(C)(C)=O (centres unmarked) [Compound 1]	0	0	40	0	30	0	0	0	0	0	40	40	95	60	60	50	0	80	0	pest or weed control at 500 g/ha [21]: 60%; pest or weed control at 500 g/ha [22]: 50%; pest or weed control at 500 g/ha [23]: 95%; IC50 [24]: 80 nM; pest or weed control at 1000 g/ha [25]: 50%; plant injury at 1000 g/ha [26]: 40%; pest or weed control at 1000 g/ha [27]: 0%; pest or weed control at 1000 g/ha [28]: 70%
420	CP(C)(=O)CNCN(O)C(=O)c1ccccc1 [Compound 2, N-(N-Benzoyl-N-hydroxyaminomethyl)aminomethyldimethylphosphine oxide]	0	0	0	0	50	0	0	0	0	0	60	50	90	60	60	50	0	70	0	pest or weed control at 500 g/ha [21]: 50%; pest or weed control at 500 g/ha [22]: 70%; pest or weed control at 500 g/ha [23]: 80%; IC50 [24]: 60 nM; pest or weed control at 1000 g/ha [25]: 30%; plant injury at 1000 g/ha [26]: 30%; pest or weed control at 1000 g/ha [27]: 0%; pest or weed control at 1000 g/ha [28]: 0%
